{
  "source": "patent US9260504B2",
  "about": "“N- and C-terminal substituted antagonistic analogs of GH-RH” (University of Miami, priority 2008, dated 2016)",
  "format_in_all_cases": "in vivo",
  "key": {"[1]": {"system": "PC-3 human hormone-independent prostate cancer", "experiment": "PC-3 human prostate cancer xenografts in nude mice, Experiment 1", "conditions": "10 μg/day s.c., daily for 35 days; means±S.E.", "experimental": "Male nude mice were implanted s.c. with 3 mm^3 pieces of PC-3 human hormone-independent prostate cancer tissue on both flanks. When tumors reached a volume of approx. 50 mm^3, the mice were divided into 4 experimental groups with 8 to 10 animals in each group and received single daily injections for 35 days as follows: 1. Control (vehicle solution); 2. JMR-132 (10 μg/day s.c.); 3. Peptide 1109 (10 μg/day s.c.); 4. Peptide 11111 (10 μg/day s.c.); Tumor volumes were measured once a week. The experiment was ended on day 35 by sacrificing the mice under Isoflurane anesthesia. Resulting tumors were cleaned, weighed, and snap-frozen until further analyses. Statistical analyses of the measurement results were done by two-tailed t-test, p<0.05 being considered significant. Data are presented as the means±S.E."}, "[2]": {"system": "H-460 human non-small cell lung cancer", "experiment": "H-460 human non-SCLC xenografts in nude mice, Experiment 2", "conditions": "10 μg/day s.c.", "experimental": "Male nude mice were implanted s.c. with 3 mm^3 pieces of H-460 human non-SCLC tumor tissue on both flanks. When tumors had grown to a mean volume of approximately 90 mm^3, the mice were randomly assigned into 12 experimental groups with 8 to 10 animals in each group and received single daily injections for 28 days as follows: 1. Control (vehicle solution); 2. JMR-132 (10 μg/day s.c.); 3. Peptide 11109 (5 μg/day s.c.); 4. Peptide 11113 (5 μg/day s.c.); 5. Peptide 11119 (5 μg/day s.c.); 6. Peptide 11209 (5 μg/day s.c.); 7. Peptide 11313 (5 μg/day s.c.); 8. Peptide 11408 (5 μg/day s.c.); 9. Peptide 11435 (5 μg/day s.c.); 10. Peptide 11459 (5 μg/day s.c.); 11. Peptide 11469 (5 μg/day s.c.); 12. Peptide 11491 (5 μg/day s.c.). Tumor volumes were measured once a week. The experiment was ended on day 28 by sacrificing the mice under Isoflurane anesthesia. Resulting tumors were cleaned, weighed, and snap-frozen until further analyses. Statistical analyses of the measurement results were done by two-tailed t-test, p<0.05 being considered significant. Data are presented as the means±S.E."}, "[3]": {"system": "H-460 human non-small cell lung cancer", "experiment": "H-460 human non-SCLC xenografts in nude mice, Experiment 3", "conditions": "10 μg/day s.c., 28 days", "experimental": "Male nude mice were implanted s.c. with 3 mm^3 pieces of H-460 human non-SCLC tumor tissue on both flanks. When tumors had grown to a mean volume of approximately 90 mm^3, the mice were randomly assigned into 8 experimental groups with 8 to 10 animals in each group and received single daily injections for 28 days as follows: 1. Control (vehicle solution); 2. JMR-132 (10 μg/day s.c.); 3. Peptide 11123 (5 μg/day s.c.); 4. Peptide 11125 (5 μg/day s.c.); 5. Peptide 11307 (5 μg/day s.c.); 6. Peptide 11317 (5 μg/day s.c.); 7. Peptide 11473 (5 μg/day s.c.); 8. Peptide 11485 (5 μg/day s.c.). Tumor volumes were measured once a week. The experiment was ended on day 28 by sacrificing the mice under Isoflurane anesthesia. Resulting tumors were cleaned, weighed, and snap-frozen until further analyses. Statistical analyses of the measurement results were done by two-tailed t-test, p<0.05 being considered significant."}, "[4]": {"system": "NCI-N87 human gastric cancer", "experiment": "NCI-N87 human gastric cancer xenografts in nude mice", "conditions": "10 μg/day s.c.", "experimental": "NCI-N87 cancers were transplanted s.c. into both flank areas of 30 female nude mice. The mice were randomly assigned into 4 experimental groups with 6 to 9 animals in each group and received single daily injections for 77 days as follows: 1. Control (vehicle solution); 2. JMR-132 (10 μg/day s.c.); 3. Peptide 1109 (10 μg/day s.c.); 4. Peptide 11479 (10 μg/day s.c.). Tumor volumes were measured once a week. The experiment was ended on day 77 by sacrificing the mice under Isoflurane anesthesia. Resulting tumors were cleaned, weighed, and snap-frozen until further analyses. Statistical analyses of the measurement results were done by two-tailed t-test, p<0.05 being considered significant. Data are presented as the means±S.E."}},
  "data": [
    {"substance": "[PhAc^0-Tyr^1, D-Arg^2, Cpa^6, Ala^8, Har^9, Tyr(Me)^10, His^11, Abu^15, His^20, Nle^27, D-Arg^28, Har^29]hGH-RH(1-29)NH2 [JMR-132, reference compound]", "values": [
      {"measurement": "Tumor growth after 5 weeks (%)", "setting": "[1]", "value": "2820 ± 498", "unit": "%"},
      {"measurement": "Tumor growth after 4 weeks (%)", "setting": "[2]; 28 days, means±S.E.", "value": "11537 ± 8215", "unit": "%"},
      {"measurement": "Inhibition (%)", "setting": "[2]; after 4 weeks, negative = stimulation", "value": "(−46.14) %"},
      {"measurement": "Tumor growth inhibition after 4 weeks (%)", "setting": "[3]", "value": 15.37, "unit": "%"},
      {"measurement": "Effect on the growth of NCI-N87 cancers", "setting": "[4]; 77 days", "value": "not effective"},
      {"measurement": "Number of regressing tumors", "setting": "[4]; 77 days", "value": 2},
      {"measurement": "Tumor growth after 77 days (%)", "setting": "[4]; 77 days, means±S.E.", "value": "409 ± 78", "unit": "%"},
      {"measurement": "Tumor weights", "setting": "[4]; day 77, means±S.E.", "value": "407 ± 175", "unit": "mg"},
      {"measurement": "Tumor doubling time", "setting": "[4]; calculated without the regressing tumors", "value": "40.8 ± 5.9", "unit": "days"}
    ]}
  ]
}
